{
  "source": "PubChem BioAssay AID1259407",
  "about": "(Chemical Carcinogenesis Research Information System (CCRIS), 2018)",
  "test_system": "CCRIS mutagenicity, Ames/micronucleus/aberration tests",
  "experiment": "CCRIS mutagenicity studies",
  "key": {"[1]": {"settings": "Test System: AMES SALMONELLA TYPHIMURIUM, Strain/Indicator: TA98, Metabolic Activation: NONE, Method: PREINCUBATION"}, "[2]": {"settings": "Test System: AMES SALMONELLA TYPHIMURIUM, Strain/Indicator: TA100, Metabolic Activation: NONE, Method: PREINCUBATION"}, "[3]": {"settings": "Test System: AMES SALMONELLA TYPHIMURIUM, Strain/Indicator: TA1535, Metabolic Activation: NONE, Method: PREINCUBATION"}},
  "note": "Calls of active or inactive are those of the source. How the calls were made is not given here.",
  "data": [
    {"smiles": "C/C=C/C=O", "values": [
      {"measurement": "mutagenic call", "setting": "End Point: IN VITRO CHROMOSOMAL ABERRATIONS, Test System: CHINESE HAMSTER OVARY CELLS, Metabolic Activation: NONE", "result": "active; positive"},
      {"measurement": "mutagenic call", "setting": "End Point: IN VITRO CHROMOSOMAL ABERRATIONS, Test System: CHINESE HAMSTER OVARY CELLS, Metabolic Activation: RAT, LIVER, S-9, AROCLOR 1254", "result": "active; positive"},
      {"measurement": "mutagenic call", "setting": "End Point: IN VITRO CHROMOSOMAL ABERRATIONS, Test System: CHL CELLS, Metabolic Activation: RAT, LIVER, S-9, SODIUM PHENOBARBITAL AND 5,6-BENZOFLAVONE", "result": "active; positive (structural changes)"},
      {"measurement": "mutagenic call", "setting": "End Point: In vivo chromosomal aberrations, Test System: Bone marrow, Species: Mouse, Strain/Sex: Swiss/ 3 males and 2 females per group, Route: Intraperitoneal", "result": "active; positive (statistically significant at all doses and durations) (structural aber"},
      {"measurement": "mutagenic call", "setting": "End Point: In vivo chromosomal aberrations, Test System: Spermatocytes, Species: Mouse, Strain/Sex: Swiss/males, Route: Intraperitoneal", "result": "active; positive (dose-related) (autosomal univalents, x-y univalents, fragments or brea"},
      {"measurement": "mutagenic call", "setting": "Test System: AMES SALMONELLA TYPHIMURIUM, Strain/Indicator: TA98, Metabolic Activation: NONE, Method: FLUCTUATION (MICROTITER)", "result": "active; positive"},
      {"measurement": "mutagenic call", "setting": "[1]", "result": "active; positive"},
      {"measurement": "mutagenic call", "setting": "Test System: AMES SALMONELLA TYPHIMURIUM, Strain/Indicator: TA98, Metabolic Activation: RAT LIVER S-9, PHENOBARBITAL AND BETA-NAPHTHOFLAVONE, Method: PREINCUBATION", "result": "active; positive"},
      {"measurement": "mutagenic call", "setting": "Test System: AMES SALMONELLA TYPHIMURIUM, Strain/Indicator: TA100, Metabolic Activation: NONE, Method: MODIFIED LIQUID SUSPENSION", "result": "active; positive"},
      {"measurement": "mutagenic call", "setting": "[2]", "result": "active; positive"},
      {"measurement": "mutagenic call", "setting": "Test System: AMES SALMONELLA TYPHIMURIUM, Strain/Indicator: TA100, Metabolic Activation: NONE, Method: PREINCUBATION (THREEFOLD CELL DENSITY)", "result": "active; positive"},
      {"measurement": "mutagenic call", "setting": "Test System: AMES SALMONELLA TYPHIMURIUM, Strain/Indicator: TA100, Metabolic Activation: RAT LIVER S-9, PHENOBARBITAL AND BETA-NAPHTHOFLAVONE, Method: PREINCUBATION", "result": "active; positive"},
      {"measurement": "mutagenic call", "setting": "Test System: AMES SALMONELLA TYPHIMURIUM, Strain/Indicator: TA100, Metabolic Activation: RAT, LIVER, S-9, AROCLOR 1254, Method: MODIFIED LIQUID SUSPENSION", "result": "active; positive"},
      {"measurement": "mutagenic call", "setting": "Test System: AMES SALMONELLA TYPHIMURIUM, Strain/Indicator: TA100, Metabolic Activation: RAT, LIVER, S-9, AROCLOR 1254, Method: PREINCUBATION (THREEFOLD CELL DENSITY)", "result": "active; positive"},
      {"measurement": "mutagenic call", "setting": "Test System: AMES SALMONELLA TYPHIMURIUM, Strain/Indicator: TA104, Metabolic Activation: NONE, Method: PREINCUBATION", "result": "active; positive"},
      {"measurement": "mutagenic call", "setting": "[3]", "result": "inactive; negative"},
      {"measurement": "mutagenic call", "setting": "Test System: AMES SALMONELLA TYPHIMURIUM, Strain/Indicator: TA1535, Metabolic Activation: RAT LIVER S-9, PHENOBARBITAL AND BETA-NAPHTHOFLAVONE, Method: PREINCUBATION", "result": "inactive; negative"},
      {"measurement": "mutagenic call", "setting": "Test System: AMES SALMONELLA TYPHIMURIUM, Strain/Indicator: TA1537, Metabolic Activation: NONE, Method: FLUCTUATION (MICROTITER)", "result": "inactive; negative"},
      {"measurement": "mutagenic call", "setting": "Test System: AMES SALMONELLA TYPHIMURIUM, Strain/Indicator: TA1537, Metabolic Activation: RAT LIVER S-9, PHENOBARBITAL AND BETA-NAPHTHOFLAVONE, Method: PREINCUBATION", "result": "inactive; negative"},
      {"measurement": "mutagenic call", "setting": "Test System: AMES SALMONELLA TYPHIMURIUM, Strain/Indicator: TA7001, Metabolic Activation: NONE, Method: FLUCTUATION (MICROTITER)", "result": "inactive; negative"},
      {"measurement": "mutagenic call", "setting": "Test System: AMES SALMONELLA TYPHIMURIUM, Strain/Indicator: TA7002, Metabolic Activation: NONE, Method: FLUCTUATION (MICROTITER)", "result": "active; positive"},
      {"measurement": "mutagenic call", "setting": "Test System: AMES SALMONELLA TYPHIMURIUM, Strain/Indicator: TA7003, Metabolic Activation: NONE, Method: FLUCTUATION (MICROTITER)", "result": "inactive; negative"},
      {"measurement": "mutagenic call", "setting": "Test System: AMES SALMONELLA TYPHIMURIUM, Strain/Indicator: TA7004, Metabolic Activation: NONE, Method: FLUCTUATION (MICROTITER)", "result": "active; positive"},
      {"measurement": "mutagenic call", "setting": "Test System: AMES SALMONELLA TYPHIMURIUM, Strain/Indicator: TA7005, Metabolic Activation: NONE, Method: FLUCTUATION (MICROTITER)", "result": "active; positive"},
      {"measurement": "mutagenic call", "setting": "Test System: AMES SALMONELLA TYPHIMURIUM, Strain/Indicator: TA7006, Metabolic Activation: NONE, Method: FLUCTUATION (MICROTITER)", "result": "active; positive"},
      {"measurement": "mutagenic call", "setting": "Test System: CHINESE HAMSTER OVARY, Strain/Indicator: AS52/6-THIOGUANINE, Metabolic Activation: NONE, Method: STANDARD PLATE", "result": "inactive; negative"},
      {"measurement": "mutagenic call", "setting": "Test System: E.COLI, Strain/Indicator: WP2UVRA, Metabolic Activation: NONE, Method: PREINCUBATION", "result": "inactive; negative"},
      {"measurement": "mutagenic call", "setting": "Test System: E.COLI, Strain/Indicator: WP2UVRA, Metabolic Activation: RAT LIVER S-9, PHENOBARBITAL AND BETA-NAPHTHOFLAVONE, Method: PREINCUBATION", "result": "inactive; negative"}
    ]},
    {"smiles": "CC(C)(C)NCC(O)c1cc(Cl)c(N)c(C(F)(F)F)c1", "note": "(centres undefined)", "values": [
      {"measurement": "mutagenic call", "setting": "Test System: AMES SALMONELLA TYPHIMURIUM, Strain/Indicator: TA98, Metabolic Activation: NONE, Method: STANDARD PLATE", "result": "inactive; negative"},
      {"measurement": "mutagenic call", "setting": "Test System: AMES SALMONELLA TYPHIMURIUM, Strain/Indicator: TA98, Metabolic Activation: RAT, LIVER, S-9, PCB, Method: STANDARD PLATE", "result": "inactive; negative"},
      {"measurement": "mutagenic call", "setting": "Test System: AMES SALMONELLA TYPHIMURIUM, Strain/Indicator: TA100, Metabolic Activation: NONE, Method: STANDARD PLATE", "result": "inactive; negative"},
      {"measurement": "mutagenic call", "setting": "Test System: AMES SALMONELLA TYPHIMURIUM, Strain/Indicator: TA100, Metabolic Activation: RAT, LIVER, S-9, PCB, Method: STANDARD PLATE", "result": "inactive; negative"},
      {"measurement": "mutagenic call", "setting": "Test System: AMES SALMONELLA TYPHIMURIUM, Strain/Indicator: TA1535, Metabolic Activation: NONE, Method: STANDARD PLATE", "result": "inactive; negative"},
      {"measurement": "mutagenic call", "setting": "Test System: AMES SALMONELLA TYPHIMURIUM, Strain/Indicator: TA1535, Metabolic Activation: RAT, LIVER, S-9, PCB, Method: STANDARD PLATE", "result": "inactive; negative"},
      {"measurement": "mutagenic call", "setting": "Test System: AMES SALMONELLA TYPHIMURIUM, Strain/Indicator: TA1537, Metabolic Activation: NONE, Method: STANDARD PLATE", "result": "inactive; negative"},
      {"measurement": "mutagenic call", "setting": "Test System: AMES SALMONELLA TYPHIMURIUM, Strain/Indicator: TA1537, Metabolic Activation: RAT, LIVER, S-9, PCB, Method: STANDARD PLATE", "result": "inactive; negative"},
      {"measurement": "mutagenic call", "setting": "Test System: AMES SALMONELLA TYPHIMURIUM, Strain/Indicator: TA1538, Metabolic Activation: NONE, Method: STANDARD PLATE", "result": "inactive; negative"},
      {"measurement": "mutagenic call", "setting": "Test System: AMES SALMONELLA TYPHIMURIUM, Strain/Indicator: TA1538, Metabolic Activation: RAT, LIVER, S-9, PCB, Method: STANDARD PLATE", "result": "inactive; negative"}
    ]},
    {"smiles": "CC1OC1c1ccc(C#N)cc1", "note": "(centres undefined)", "values": [
      {"measurement": "mutagenic call", "setting": "[2]", "result": "active; positive"}
    ]},
    {"smiles": "C[C@H]1COc2c(C3(N)CC3)c(F)cc3c(=O)c(C(=O)O)cn1c23", "values": [
      {"measurement": "mutagenic call", "setting": "[1]", "result": "inactive; negative"},
      {"measurement": "mutagenic call", "setting": "Test System: AMES SALMONELLA TYPHIMURIUM, Strain/Indicator: TA98, Metabolic Activation: RAT, LIVER, S-9, PHENOBARBITAL AND 5,6-BENZOFLAVONE, Method: PREINCUBATION", "result": "inactive; negative"},
      {"measurement": "mutagenic call", "setting": "[2]", "result": "inactive; negative"},
      {"measurement": "mutagenic call", "setting": "Test System: AMES SALMONELLA TYPHIMURIUM, Strain/Indicator: TA100, Metabolic Activation: RAT, LIVER, S-9, PHENOBARBITAL AND 5,6-BENZOFLAVONE, Method: PREINCUBATION", "result": "inactive; negative"},
      {"measurement": "mutagenic call", "setting": "[3]", "result": "inactive; negative"},
      {"measurement": "mutagenic call", "setting": "Test System: AMES SALMONELLA TYPHIMURIUM, Strain/Indicator: TA1535, Metabolic Activation: RAT, LIVER, S-9, PHENOBARBITAL AND 5,6-BENZOFLAVONE, Method: PREINCUBATION", "result": "inactive; negative"},
      {"measurement": "mutagenic call", "setting": "Test System: AMES SALMONELLA TYPHIMURIUM, Strain/Indicator: TA1537, Metabolic Activation: NONE, Method: PREINCUBATION", "result": "inactive; negative"},
      {"measurement": "mutagenic call", "setting": "Test System: AMES SALMONELLA TYPHIMURIUM, Strain/Indicator: TA1537, Metabolic Activation: RAT, LIVER, S-9, PHENOBARBITAL AND 5,6-BENZOFLAVONE, Method: PREINCUBATION", "result": "inactive; negative"},
      {"measurement": "mutagenic call", "setting": "Test System: E. COLI, Strain/Indicator: WP2 UVRA, Metabolic Activation: NONE, Method: PREINCUBATION", "result": "inactive; negative"},
      {"measurement": "mutagenic call", "setting": "Test System: E. COLI, Strain/Indicator: WP2 UVRA, Metabolic Activation: RAT, LIVER, S-9, PHENOBARBITAL AND 5,6-BENZOFLAVONE, Method: PREINCUBATION", "result": "inactive; negative"}
    ]}
  ]
}
